Experimental data published in patent US20030212034A1, “Method of treatment of obesity and paralyzed muscle and ergogenic aids” (priority 2002, published 2003).

How the values were obtained:
Type in all cases: in vivo, rat
[1] = Food intake, body weight and organ weights after 4 weeks of daily AICAR injection
Method: (§1) To determine the effect of chronic injection of AICAR on muscle enyzme activities or expression and on muscle GLUT4, rats were injected subcutaneously (between 8 and 10 a.m.) with AICAR (1 mg/g) or saline vehicle daily for 28±1 days in succession. Beginning with the first injection, controls were pair fed with AICAR-injected rats. Rats were anesthetized by intraperitoneal injection of pentobarbital sodium 22-25 hours after the last AICAR injection and the white and red regions of the quadriceps and the soleus muscles were removed and frozen as described above. Muscles were kept frozen at −70° C. until analyzed. Liver, heart, kidney, and fat pads were weighed.

[2] = test system: δ-Aminolevulinate synthase; experiment: Muscle δ-aminolevulinate synthase protein by western blot after AICAR injection
Method: […] Beginning with the first injection, controls were pair fed with AICAR-injected rats. […] Muscles were kept frozen at −70° C. until analyzed. Liver, heart, kidney, and fat pads were weighed.
For the chronic effects of AICAR injection muscles were analyzed for glycogen GLUT-4, hexokinase, lactate dehydrogenase, and several mitochondrial enzymes. Hassid, W. Z., & S. Abraham Methods Enzymol. 3:35-36, 1957. GLUT4 was quantitated by western blotting as described previously using GLUT4 polyclonal antibody RaIRGT, Biogenesis, Sandown, N.H.) and horseradish peroxidase-conjugated donkey anti-rabbit IgG (Amersham Life Science, Arlington Heights, Ill.). Holmes, B. F., et al. J. Appl Physiol 87:1990-1995, 1999. δ-Aminolevulinic acid synthase was determined using western blotting techniques as described previously. Li, B., et al. J. Biol. Chem. 274:17534-17540, 1999. […] Cytochrome c was detected by incubating the nitrocellulose blots with a rabbit polyclonal antibody against rabbit heart cytochrome c (Alpha Diagnostics International, San Antonio) followed by horseradish peroxidase-conjugated anti-rabbit immunoglobulin G. Antibody bound GLUT4, δ-Aminolevulinic acid synthase, and cytochrome c were visualized using enhanced chemiluminescence. Protein bands were quantified by densitometry.

[3] = test system: acetyl-CoA carboxylase (ACC); experiment: Acetyl-CoA carboxylase activity at 0.2 mM citrate in muscle after s.c. AICAR injection; settings: for ACC: at 0.2 mM citrate
Method: Three days prior to the experiment, jugular cathethers were installed and exteriorized on the back of the neck to allow rapid anesthesia of the rat and rapid blood and tissue collection. Rats were then injected with AICAR (1 mg/g body wt) subcutaneously in sterile 0.9% NaCl or were given 0.9% NaCl (n=6 rats per group). One hour after the subcutaneous injection, rats were anesthetized by intravenous injection of pentobarbital sodium (4.8 mg/100 g body wt). The superficial white and the deep red regions of the quadriceps muscles, and the soleus muscles were quickly removed and frozen with stainless steel clamps at liquid nitrogen temperature.
Resuspended ammonium sulfate precipitates of tissue homogenates were analyzed for AMPK activity and acetyl-CoA carboxylase activity as described previously. Li, B., et al. J. Biol. Chem. 274:17534-17540, 1999; Winder, W. W., & D. G. Hardie Am. J. Physiol. 270:E299-E304, 1996. […] ACC activity at 0.2 mM citrate provides some indication of the in vivo activity of AMPK, since ACC is a target for phosphorylation of AMPK. ACC activity has previously been reported to decrease in response to phosphorylation by AMPK. Winder, W. W., & D. G. Hardie Am. J. Physiol. 270:E299-E304, 1996. The acute experiment was also repeated on rats treated with AICAR or saline for 4 weeks to see if the responses of AMPK and ACC to AICAR persisted for the entire treatment period. In both experiments ATP and CP were measured on neutralized perchloric acid extracts of muscle.

malate dehydrogenase = experiment: Muscle malate dehydrogenase activity after chronic AICAR injection; settings: AICAR 1 mg/g daily 4 wk, FIG. 4
Method: as §1
For enzyme activity measurements, 10% homogenates were made from the respective muscles in 175 mM KCl, 10 mM GSH, 2 mM EDTA, pH 7.4. This homogenate was frozen and thawed 3 times and mixed thoroughly prior to enzymatic measurements. For succinate dehydrogenase and lactate dehydrogenase, an aliquot of the homogenate was centrifuged at 700×g for 10 min at 4° C. The remainder of the assays were performed on aliquots and dilutions of the mixed whole homogenate. Assays were performed by the following methods: citrate synthase, succinate dehydrogenase, the mitochondrial fraction of malate dehydrogenase, hexokinase, lactate dehydrogenase, carnitine palmitoyl transferase and hydroxyacyl-CoA dehydrogenase. Srere, P. A. Methods in Enzymology 13:3-6, 1969; King, T. E. Methods Enzymol 10:322-335, 1967; Shonk, C. E. & G. E. Boxer, Cancer Res. 24:709-721, 1964; Uyeda, K., & E. Racker, J. Biol Chem 240:4682-4688, 1965; Pesce, A., et al. J. Biol. Chem. 239:1753-1761, 1964; Baldwin, K. M., et al. Am. J. Physiol 222:373-378, 1972; Mole, P. A., et al. J. Clin. Invest. 50:2323-2330, 1971; Kobayashi, A. et al. J. Biochem. 119:775-782, 1996.

[4] = AICAR 1 mg/g s.c. daily for four weeks
[5] = AICAR-injected rats, single injection, 0.2 mM citrate

NC(=O)c1ncn([C@@H]2O[C@H](CO)[C@@H](O)[C@H]2O)c1N [AICAR, 5-aminoimidazole-4-carboxamide-1-β-D-ribofuranoside]
Epididymal Fat Pad weight [1, 4]: 1.21 ± 0.10 g
Heart weight [1, 4]: 0.80 ± 0.02 g
Kidney weight [1, 4]: 0.99 ± 0.02 g
Liver weight [1, 4]: 16.0 ± 0.50 g
Retroperitoneal Fat Pad weight [1, 4]: 0.90 ± 0.08 g
Body Weight ([1]; AICAR 1 mg/g s.c. daily for four weeks, pair-fed controls): 254 ± 5 g
food intake and body weight vs saline injected rats ([1]; AICAR for 4 weeks, FIG. 1): No statistically significant differences
effect of a single injection on δ-aminolevulinate synthase ([2]; single AICAR injection 16 hours prior to tissue collection, preliminary, data not shown): negative results
muscle content of δ-aminolevulinic acid synthase vs saline controls ([2]; white quadriceps, AICAR 4 weeks, FIG. 2): significantly increased
ACC activity in white quadriceps relative to that seen in red quadriceps [3, 5]: 61%
ACC activity in white quadriceps relative to that seen in soleus [3, 5]: 44%
ACC ([3]; red quadriceps, 60 min after AICAR injection, after daily injections for 4 wk): 0.21 ± 0.01 nmol/g/min
ACC ([3]; red quadriceps, 60 min after single AICAR injection 1 mg/g s.c., no chronic treatment): 0.19 ± 0.02 nmol/g/min
ACC ([3]; soleus, 60 min after AICAR injection, after daily injections for 4 wk): 0.28 ± 0.01 nmol/g/min
ACC ([3]; soleus, 60 min after single AICAR injection 1 mg/g s.c., no chronic treatment): 0.19 ± 0.02 nmol/g/min
ACC ([3]; white quadriceps, 60 min after AICAR injection, after daily injections for 4 wk): 0.12 ± 0.01 nmol/g/min
ACC ([3]; white quadriceps, 60 min after single AICAR injection 1 mg/g s.c., no chronic treatment): 0.08 ± 0.02 nmol/g/min
malate dehydrogenase activity vs controls (malate dehydrogenase; red quadriceps): not in red quadriceps
malate dehydrogenase activity vs controls (malate dehydrogenase; soleus): all increased
malate dehydrogenase activity vs controls (malate dehydrogenase; white quadriceps): all increased
